# Experimental data as given in US20040176431A1, “Antiproliferative 2-(sulfo-phenyl)-aminothiazole derivatives and pharmaceutical compositions, and methods for their use” (Pfizer, Inc., priority 2003, published 2004).
# pIC50, pKi: −log10 of the molar value.
# How the values were obtained:
# CDK4/cyclin D3 = biological target: T1, CDK4/cyclin D3 (Homo sapiens, UniProt P11802); assay: Inhibition of CDK4/Cyclin D retinoblastoma kinase activity; assay type: biochemical; conditions: apparent Ki, Rb fragment substrate
# T1 construct: made in house; host or cells: insect cells (baculovirus co-infection)
# T1 sequence (P11802 whole entry, the tested form may be a part): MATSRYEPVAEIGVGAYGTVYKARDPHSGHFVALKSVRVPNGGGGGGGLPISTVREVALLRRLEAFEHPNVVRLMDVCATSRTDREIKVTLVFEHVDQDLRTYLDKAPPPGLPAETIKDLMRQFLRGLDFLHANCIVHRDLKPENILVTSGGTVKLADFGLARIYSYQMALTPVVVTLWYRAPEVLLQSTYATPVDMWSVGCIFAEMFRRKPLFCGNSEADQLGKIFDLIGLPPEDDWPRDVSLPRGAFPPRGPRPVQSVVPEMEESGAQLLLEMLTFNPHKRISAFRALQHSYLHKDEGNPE
# T1 sequence (P30281 1-264 partner limits assumed): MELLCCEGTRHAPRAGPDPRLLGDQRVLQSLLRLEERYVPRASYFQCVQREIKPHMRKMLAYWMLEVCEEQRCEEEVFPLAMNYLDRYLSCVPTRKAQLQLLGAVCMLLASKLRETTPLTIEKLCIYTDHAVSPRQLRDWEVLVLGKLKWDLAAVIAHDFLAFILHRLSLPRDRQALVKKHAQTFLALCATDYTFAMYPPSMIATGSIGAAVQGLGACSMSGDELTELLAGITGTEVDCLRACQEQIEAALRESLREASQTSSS
# How it was run: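 Apparent Ki derived by fitting activity at varied inhibitor concentrations to competitive (or competitive tight-binding) inhibition equations, background without enzyme subtracted. Radiometric filter-binding read-out of Rb(386-928) phosphorylation by 5 nM CDK4/cyclin D3(1-264); 25 μM ATP, pH 7.4, 2% DMSO, 30° C., 20 min, extended to 60 min for tight binders.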
# CDK2/cyclin A = biological target: T2, CDK2/cyclin A (Homo sapiens, UniProt P24941); assay: Inhibition of CDK2/Cyclin A retinoblastoma kinase activity; assay type: biochemical; conditions: apparent Ki, Rb fragment substrate
# T2 construct: made in house; host or cells: CDK2: insect cells (baculovirus); cyclin A: E. coli, then limited proteolysis
# Experimental: Cyclin-dependent kinase activity was measured by quantifying the enzyme-catalyzed, time-dependent incorporation of radioactive phosphate from [^32P]ATP or [^33P]ATP into a protein substrate. Unless noted otherwise, assays were performed in 96-well plates in a total volume of 50 μL, in the presence of 10 mM HEPES (N-[2-hydroxyethyl]piperazine-N′-[2-ethanesulfonic acid]) (pH 7.4), 10 mM MgCl2, 25 μM adenosine triphosphate (ATP), 1 mg/mL ovalbumin, 5 μg/mL leupeptin, 1 mM dithiothreitol, 10 mM β-glycerophosphate, 0.1 mM sodium vanadate, 1 mM sodium fluoride, 2.5 mM ethylene glycol-bis(β-aminoethyl ether)-N,N,N′N′-tetraacetic acid (EGTA), 2% (v/v) dimethylsulfoxide, and 0.03-0.4 μCi [^32/33P]ATP per reaction. Reactions were initiated with enzyme, incubated at 30° C., and terminated after 20 minutes by the addition of ethylenediaminetetraacetic acid (EDTA) to 250 mM. The phosphorylated substrate was then captured on a nitrocellulose or phosphocellulose membrane using a 96-well filtration manifold, and unincorporated radioactivity was removed by repeated washing with 0.85% phosphoric acid. Radioactivity was quantified by exposing the dried membranes to a phosphorimager.
# Inhibition was measured relative to control wells that contained all reaction components including 2% (v/v) DMSO but no compound, after subtraction of background radioactivity measured in the absence of enzyme. Apparent Ki values of discrete compounds were measured by assaying enzyme activity in the presence of different inhibitor compound concentrations and subtracting the background radioactivity measured in the absence of enzyme. The kinetic parameters (kcat, Km for ATP) were measured for each enzyme under the usual assay conditions by determining the dependence of initial rates on ATP concentration. Inhibition data were fit to an equation for competitive inhibition using Kaleidagraph (Synergy Software), or were fit to an equation for competitive tight-binding inhibition using the software KineTic (BioKin, Ltd.).
# CDK2 was purified using published methodology (Rosenblatt et al., J. Mol. Biol., 230, 1317-1319 (1993)) from insect cells that had been infected with a baculovirus expression vector. Cyclin A was purified from E. coli cells expressing full-length recombinant cyclin A, and a truncated cyclin A construct was generated by limited proteolysis and purified as described previously (Jeffrey et al., Nature, 376, 313-320 (1995)). A complex of CDK2 and proteolyzed cyclin A was prepared and purified by gel filtration. The substrate for this assay was the same Rb substrate fragment used for the CDK4 assays, and the methodology of the CDK2/delta cyclin A and the CDK4/delta cyclin D3 assays was essentially the same, except that CDK2 was present at 10 nM or 19 nM. The duration of the assay was 60 or 75 minutes, during which the time-dependence of product formation was linear and initial rate conditions were met.
# HCT-116 cells = assay: Inhibition of cell growth (MTT tetrazolium salt assay); assay type: cell-based; conditions: Homo sapiens; for pIC50: read-out: HCT116 IC50; for IC90: read-out: HCT116 IC90
# Experimental: Inhibition of cell growth was measured using the tetrazolium salt assay, which is based on the ability of viable cells to reduce 3-(4,5-dimethylthiazol-2-yl)-2,5-[2H]-diphenyltetrazolium bromide (MTT) to formazan (Mosmann, J. Immunol. Meth., 65, 55-63 (1983)). The water-insoluble purple formazan product was then detected spectrophotometrically. HCT-116 cells were grown in 96-well plates. Cells were plated in the appropriate medium at a volume of 135 μl/well in either McCoy's 5A Medium. Plates were incubated for four hours before addition of inhibitor compounds. Different concentrations of inhibitor compounds were added in 0.5% (v/v) dimethylsulfoxide (15 μL/well), and cells were incubated at 37° C. (5% CO2) for four to six days (depending on cell type). At the end of the incubation, MTT was added to a final concentration of 0.2 mg/mL, and cells were incubated for 4 hours more at 37° C. After centrifugation of the plates and removal of medium, the absorbance of the formazan (solubilized in dimethylsulfoxide) was measured at 540 nm. […] All results were compared to control cells treated only with 0.5% (v/v) dimethylsulfoxide.
Structure (SMILES),pKi (CDK4/cyclin D3),pKi (CDK2/cyclin A),pIC50 (HCT-116 cells),IC90 (HCT-116 cells) [nM]
"Nc1nc(Nc2ccc(S(=O)(=O)Nc3ccccc3)cc2)sc1C(=O)c1c(F)cccc1F [C(1), 4-[4-Amino-5-(2,6-difluoro-benzoyl)-thiazol-2-ylamino]-N-phenyl-benzenesulfonamide]",7.12,7.77,6.06,1900
"Cc1ccsc1C(=O)c1sc(Nc2ccc(S(N)(=O)=O)cc2)nc1N [C(48)*, reference compound]",7.72,7.96,6.47,–
"Nc1nc(Nc2ccc(S(=O)(=O)NCC3CCCNC3)cc2)sc1C(=O)c1c(F)cccc1F (centres unmarked) [D(1), 4-[4-Amino-5-(2,6-difluoro-benzoyl)-thiazol-2-ylamino]-N-piperidin-3-ylmethyl-benzenesulfonamide]",7.92,7.74,4.77,> 25000
"Nc1nc(Nc2ccc(S(=O)(=O)NCC3CCCCN3)cc2)sc1C(=O)c1c(F)cccc1F (centres unmarked) [D(2), 4-[4-Amino-5-(2,6-difluoro-benzoyl)-thiazol-2-ylamino]-N-piperidin-2-ylmethyl-benzenesulfonamide]",7.70,7.35,5.40,9200
"CNCCNS(=O)(=O)c1ccc(Nc2nc(N)c(C(=O)c3c(F)cccc3F)s2)cc1 [D(3), 4-[4-Amino-5-(2,6-difluoro-benzoyl)-thiazol-2-ylamino]-N-(2-methylamino-ethyl)-benzenesulfonamide]",8.24,8.03,5.54,> 5000
"Cc1csc(NS(=O)(=O)c2ccc(Nc3nc(N)c(C(=O)c4c(F)cccc4F)s3)cc2)n1 [E(1), 4-[4-Amino-5-(2,6-difluoro-benzoyl)-thiazol-2-ylamino]-N-(4-methyl-thiazol-2-yl)-benzenesulfonamide]",7.38,7.82,5.15,17000
"Nc1nc(Nc2ccc(S(=O)(=O)N3CCNCC3)cc2)sc1C(=O)c1c(F)cccc1F [Example A(1), {4-Amino-2-[4-(piperazine-1-sulfonyl)-phenylamino]-thiazol-5-yl}-(2,6-difluoro-phenyl)-methanone]",7.59,7.85,6.00,2700
"CN(C)CCNS(=O)(=O)c1ccc(Nc2nc(N)c(C(=O)c3c(F)cccc3F)s2)cc1 [Example A(2), 4-[4-Amino-5-(2,6-difluoro-benzoyl)-thiazol-2-ylamino]-N-(2-dimethylamino-ethyl)-benzenesulfonamide]",8.12,8.35,6.44,1100
COCCNS(=O)(=O)c1ccc(Nc2nc(N)c(C(=O)c3c(F)cccc3F)s2)cc1 [Example A(3)],7.28,8.46,6.47,720
"Nc1nc(Nc2ccc(S(=O)(=O)NCCO)cc2)sc1C(=O)c1c(F)cccc1F [Example A(4), 4-[4-Amino-5-(2,6-difluoro-benzoyl)-thiazol-2-ylamino]-N-(2-hydroxy-ethyl)-benzenesulfonamide]",7.55,8.35,6.00,2800
"Nc1nc(Nc2ccc(S(=O)(=O)NCCCCO)cc2)sc1C(=O)c1c(F)cccc1F [Example A(5), 4-[4-Amino-5-(2,6-difluoro-benzoyl)-thiazol-2-ylamino]-N-(4-hydroxy-butyl)-benzenesulfonamide]",7.62,8.24,5.89,3000
"Nc1nc(Nc2ccc(S(=O)(=O)NCCOCCO)cc2)sc1C(=O)c1c(F)cccc1F [Example A(6), 4-[4-Amino-5-(2,6-difluoro-benzoyl)-thiazol-2-ylamino]-N-[2-(2-hydroxy-ethoxy)-ethyl]-benzenesulfonamide]",7.59,8.28,5.72,4200
